Data: patent US9850283B2, “Macrocyclic inhibitors of the PD-1/PD-L1 and CD80(B7-1)/PD-L1 protein/protein interactions” (BRISTOL-MYERS SQUIBB COMPANY, priority 2013, dated 2017)
pIC50: −log10 of the molar value. Positions of bridges follow the written chain, without caps; N, C: chain ends. Non-standard residues stand in square brackets, D forms with d. Residues, ends and D or L forms follow the SMILES beside them. Pro(trans-4-F) = O=C(O)[C@@H]1C[C@@H](F)CN1; Hyp = O=C(O)[C@@H]1C[C@@H](O)CN1; NMeNle = CCCC[C@H](NC)C(=O)O; NMeA = CN[C@@H](C)C(=O)O; Dab = NCC[C@H](N)C(=O)O; Dap = NC[C@H](N)C(=O)O

Columns and labels:
[1] = target: T1, LK35.2-hPD-L1 cells / PE-labeled PD-1-Ig (Homo sapiens, UniProt Q9NZQ7); assay: LK35.2-hPD-L1 cell binding high-content screening assay; type: cell-based; conditions: cell binding assay, cell line not given; cluster symbol; read-out: CBA IC50 cluster
T1 construct: expressed in transfected cells; host or cells: LK35.2 mouse B cell line
Summary of the method: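 Readout: high-content imaging of PE-PD-1-Ig bound to LK35.2-hPD-L1 cells. Cells plated overnight (RPMI/10% FCS); compound + 1 nM PE-PD-1-Ig, 1 h, 37 °C; 3× dPBS wash before imaging.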

[2] = target: T2, Human PD-L1/PD-1 (Homo sapiens, UniProt Q9NZQ7); assay: HTRF PD-1-Ig/PD-L1-His binding assay (human PD-L1); conditions: cluster symbol; read-out: HTRF IC50 cluster
T2 construct: made in house; host or cells: HEK293T
Summary of the method: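 HTRF read-out: Eu cryptate anti-Ig mAb 1 nM final, APC anti-His mAb 20 nM final, added over the binding reaction. Proteins were PD-1-Ig and PD-L1-His ectodomain fusions. Buffer was dPBS, 0.1% BSA, 0.05% Tween-20.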

T2 sequence (Q9NZQ7 with tags, fused parts or gaps): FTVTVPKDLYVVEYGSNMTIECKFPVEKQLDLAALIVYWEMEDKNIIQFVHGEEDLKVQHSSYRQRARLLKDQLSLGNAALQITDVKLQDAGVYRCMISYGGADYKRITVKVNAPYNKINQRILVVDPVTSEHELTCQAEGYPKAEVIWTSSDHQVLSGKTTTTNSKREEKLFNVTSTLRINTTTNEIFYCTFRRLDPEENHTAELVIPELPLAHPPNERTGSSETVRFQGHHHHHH
T1 sequence (Q9NZQ7 19-290): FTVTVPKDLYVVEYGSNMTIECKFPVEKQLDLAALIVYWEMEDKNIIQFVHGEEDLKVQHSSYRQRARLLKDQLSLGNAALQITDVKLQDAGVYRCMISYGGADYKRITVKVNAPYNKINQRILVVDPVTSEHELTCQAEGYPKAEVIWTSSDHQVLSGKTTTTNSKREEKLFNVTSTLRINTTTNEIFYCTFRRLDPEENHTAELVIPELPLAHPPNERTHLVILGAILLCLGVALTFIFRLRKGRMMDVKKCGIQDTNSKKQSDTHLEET

Row | SMILES | pIC50 [1] | pIC50 [2]
1 | CCCC[C@H]1C(=O)N(C)[C@@H](CCCC)C(=O)N[C@@H](CCN)C(=O)N[C@H](C(=O)NCC(N)=O)CSCC(=O)N[C@@H](Cc2ccc(O)cc2)C(=O)N(C)[C@@H](C)C(=O)N[C@@H](CC(N)=O)C(=O)N2CCC[C@H]2C(=O)N[C@@H](Cc2cnc[nH]2)C(=O)N[C@@H](CCC(=O)O)C(=O)N2C[C@H](O)C[C@H]2C(=O)N[C@@H](Cc2c[nH]c3ccccc23)C(=O)N[C@@H](CO)C(=O)N[C@@H](Cc2c[nH]c3ccccc23)C(=O)N1C [Example 5031] ({CH2CO}-Y[NMeA]NPHE[Hyp]WSW[NMeNle][NMeNle][Dab]CG-NH2; thioether N-14) | 8.33 to 9.80 | 8.17 to 9.41
2 | CCCC[C@H]1C(=O)N(C)[C@@H](CCCC)C(=O)N[C@@H](CCN)C(=O)N[C@H](C(=O)NCC(N)=O)CSCC(=O)N[C@@H](Cc2ccc(O)cc2)C(=O)N(C)[C@@H](C)C(=O)N[C@@H](CC(N)=O)C(=O)N2CCC[C@H]2C(=O)N[C@@H](Cc2cnc[nH]2)C(=O)N[C@@H](CC(C)C)C(=O)N2C[C@H](O)C[C@H]2C(=O)N[C@@H](Cc2c[nH]c3ccccc23)C(=O)N[C@@H](CCN)C(=O)N[C@@H](Cc2c[nH]c3ccccc23)C(=O)N1C [Example 5032] ({CH2CO}-Y[NMeA]NPHL[Hyp]W[Dab]W[NMeNle][NMeNle][Dab]CG-NH2; thioether N-14) | 8.33 to 9.80 | 8.17 to 9.41
3 | CCCC[C@H]1C(=O)N(C)[C@@H](CCCC)C(=O)N[C@@H](CCCNC(=N)N)C(=O)N[C@H](C(=O)NCC(N)=O)CSCC(=O)N[C@@H](Cc2ccccc2)C(=O)N(C)[C@@H](C)C(=O)N[C@@H](CC(N)=O)C(=O)N2CCC[C@H]2C(=O)N[C@@H](Cc2cnc[nH]2)C(=O)N[C@@H](CC(C)C)C(=O)N2C[C@H](F)C[C@H]2C(=O)N[C@@H](Cc2c[nH]c3ccccc23)C(=O)N[C@@H](CO)C(=O)N[C@@H](Cc2c[nH]c3ccccc23)C(=O)N1C [Example 5033] ({CH2CO}-F[NMeA]NPHL[Pro(trans-4-F)]WSW[NMeNle][NMeNle]RCG-NH2; thioether N-14) | 7.14 to 8.32 | 7.52 to 8.17
4 | CCCC[C@H]1C(=O)N(C)[C@@H](CCCC)C(=O)N[C@@H](CCN)C(=O)N[C@H](C(=O)NCC(N)=O)CSCC(=O)N[C@@H](Cc2ccc(O)cc2)C(=O)N(C)[C@@H](C)C(=O)N[C@@H](CC(=O)O)C(=O)N2CCC[C@H]2C(=O)N[C@@H](Cc2cnc[nH]2)C(=O)N[C@@H](CCC(=O)O)C(=O)N2C[C@H](O)C[C@H]2C(=O)N[C@@H](Cc2c[nH]c3ccccc23)C(=O)N[C@@H](CCN)C(=O)N[C@@H](Cc2c[nH]c3ccccc23)C(=O)N1C [Example 5034] ({CH2CO}-Y[NMeA]DPHE[Hyp]W[Dab]W[NMeNle][NMeNle][Dab]CG-NH2; thioether N-14) | 8.33 to 9.80 | 8.17 to 9.41
5 | CCCC[C@H]1C(=O)N(C)[C@@H](CCCC)C(=O)N[C@@H](C)C(=O)N[C@H](C(=O)NCC(N)=O)CSCC(=O)N[C@@H](Cc2ccc(O)cc2)C(=O)N(C)[C@@H](C)C(=O)N[C@@H](CC(N)=O)C(=O)N2CCC[C@H]2C(=O)N[C@@H](Cc2cnc[nH]2)C(=O)N[C@@H](CC(C)C)C(=O)N2C[C@H](O)C[C@H]2C(=O)N[C@@H](Cc2c[nH]c3ccccc23)C(=O)N[C@@H](CCN)C(=O)N[C@@H](Cc2c[nH]c3ccccc23)C(=O)N1C [Example 5035] | 8.33 to 9.80 | 8.17 to 9.41
6 | CCCC[C@H]1C(=O)N(C)[C@@H](CCCC)C(=O)N[C@@H](C)C(=O)N[C@H](C(=O)NCC(N)=O)CSCC(=O)N[C@@H](Cc2ccc(O)cc2)C(=O)N(C)[C@@H](C)C(=O)N[C@@H](CC(N)=O)C(=O)N2CCC[C@H]2C(=O)N[C@@H](Cc2cnc[nH]2)C(=O)N[C@@H](CCC(=O)O)C(=O)N2C[C@H](O)C[C@H]2C(=O)N[C@@H](Cc2c[nH]c3ccccc23)C(=O)N[C@@H](CCN)C(=O)N[C@@H](Cc2c[nH]c3ccccc23)C(=O)N1C [Example 5036] ({CH2CO}-Y[NMeA]NPHE[Hyp]W[Dab]W[NMeNle][NMeNle]ACG-NH2; thioether N-14) | 8.33 to 9.80 | 8.17 to 9.41
7 | CCCC[C@H]1C(=O)N(C)[C@@H](CCCC)C(=O)N[C@@H](C)C(=O)N[C@H](C(=O)NCC(N)=O)CSCC(=O)N[C@@H](Cc2ccc(O)cc2)C(=O)N(C)[C@@H](C)C(=O)N[C@@H](CC(=O)O)C(=O)N2CCC[C@H]2C(=O)N[C@@H](Cc2cnc[nH]2)C(=O)N[C@@H](CCC(=O)O)C(=O)N2C[C@H](O)C[C@H]2C(=O)N[C@@H](Cc2c[nH]c3ccccc23)C(=O)N[C@@H](CCN)C(=O)N[C@@H](Cc2c[nH]c3ccccc23)C(=O)N1C [Example 5037] ({CH2CO}-Y[NMeA]DPHE[Hyp]W[Dab]W[NMeNle][NMeNle]ACG-NH2; thioether N-14) | 8.33 to 9.80 | 8.17 to 9.41
8 | CCCC[C@H]1C(=O)N(C)[C@@H](CCCC)C(=O)N[C@@H](C)C(=O)N[C@H](C(=O)NCC(N)=O)CSCC(=O)N[C@@H](Cc2ccc(O)cc2)C(=O)N(C)[C@@H](C)C(=O)N[C@@H](CC(N)=O)C(=O)N2CCC[C@H]2C(=O)N[C@@H](Cc2cnc[nH]2)C(=O)N[C@@H](CCC(N)=O)C(=O)N2C[C@H](O)C[C@H]2C(=O)N[C@@H](Cc2c[nH]c3ccccc23)C(=O)N[C@@H](CCN)C(=O)N[C@@H](Cc2c[nH]c3ccccc23)C(=O)N1C [Example 5038] ({CH2CO}-Y[NMeA]NPHQ[Hyp]W[Dab]W[NMeNle][NMeNle]ACG-NH2; thioether N-14) | 8.33 to 9.80 | 7.52 to 8.17
9 | CCCC[C@H]1C(=O)N(C)[C@@H](CCCC)C(=O)N[C@@H](C)C(=O)N[C@H](C(=O)NCC(N)=O)CSCC(=O)N[C@@H](Cc2ccc(O)cc2)C(=O)N(C)[C@@H](C)C(=O)N[C@@H](CC(=O)O)C(=O)N2CCC[C@H]2C(=O)N[C@@H](Cc2cnc[nH]2)C(=O)N[C@@H](CCC(N)=O)C(=O)N2C[C@H](O)C[C@H]2C(=O)N[C@@H](Cc2c[nH]c3ccccc23)C(=O)N[C@@H](CCN)C(=O)N[C@@H](Cc2c[nH]c3ccccc23)C(=O)N1C [Example 5039] ({CH2CO}-Y[NMeA]DPHQ[Hyp]W[Dab]W[NMeNle][NMeNle]ACG-NH2; thioether N-14) | 8.33 to 9.80 | 8.17 to 9.41
10 | CCCC[C@H]1C(=O)N(C)[C@@H](CCCC)C(=O)N[C@@H](C)C(=O)N[C@H](C(=O)NCC(N)=O)CSCC(=O)N[C@@H](Cc2ccc(O)cc2)C(=O)N(C)[C@@H](C)C(=O)N[C@@H](CC(N)=O)C(=O)N2CCC[C@H]2C(=O)N[C@@H](CN)C(=O)N[C@@H](CCC(=O)O)C(=O)N2C[C@H](O)C[C@H]2C(=O)N[C@@H](Cc2c[nH]c3ccccc23)C(=O)N[C@@H](CCN)C(=O)N[C@@H](Cc2c[nH]c3ccccc23)C(=O)N1C [Example 5040] ({CH2CO}-Y[NMeA]NP[Dap]E[Hyp]W[Dab]W[NMeNle][NMeNle]ACG-NH2; thioether N-14) | 8.33 to 9.80 | 7.52 to 8.17
11 | CCCC[C@H]1C(=O)N(C)[C@@H](CCCC)C(=O)N[C@@H](CCN)C(=O)N[C@H](C(=O)NCC(N)=O)CSCC(=O)N[C@@H](Cc2ccc(O)cc2)C(=O)N(C)[C@@H](C)C(=O)N[C@@H](CC(N)=O)C(=O)N2CCC[C@H]2C(=O)N[C@@H](Cc2cnc[nH]2)C(=O)N[C@@H](CCC(N)=O)C(=O)N2C[C@H](O)C[C@H]2C(=O)N[C@@H](Cc2c[nH]c3ccccc23)C(=O)N[C@@H](CO)C(=O)N[C@@H](Cc2c[nH]c3ccccc23)C(=O)N1C [Example 5041] ({CH2CO}-Y[NMeA]NPHQ[Hyp]WSW[NMeNle][NMeNle][Dab]CG-NH2; thioether N-14) | 8.33 to 9.80 | 7.52 to 8.17
